Assay results from patent publication US8680108B2, “Substituted fused aryl and heteroaryl derivatives as PI3K inhibitors” (Incyte Corporation, priority 2009, dated 2014).
Counter-ions that a name gives are not always drawn. Like-named read-outs stand apart in the source and are kept apart here.

Target: T1, PI3Kδ (p110δ/p85α) (Homo sapiens, UniProt O00329)
T1 construct: purchased Millipore (Bedford, Mass.)
Experiment: PI3Kδ scintillation proximity assay
Type: biochemical
Description: Materials: [γ-^33P]ATP (10 mCi/mL) was purchased from Perkin-Elmer (Waltham, Mass.). Lipid kinase substrate, D-myo-Phosphatidylinositol 4,5-bisphosphate (PtdIns(4,5)P2)D (+)-sn-1,2-di-O-octanoylglyceryl, 3-O-phospho linked (PIP2), CAS 204858-53-7, was purchased from Echelon Biosciences (Salt Lake City, Utah). PI3Kδ (p110δ/p85α) was purchased from Millipore (Bedford, Mass.). ATP, MgCl2, DTT, EDTA, MOPS and CHAPS were purchased from Sigma-Aldrich (St. Louis, Mo.). Wheat Germ Agglutinin (WGA) YSi SPA Scintillation Beads was purchased from GE healthcare life sciences (Piscataway, N.J.).
Assay: The kinase reaction was conducted in polystyrene 384-well matrix white plate from Thermo Fisher Scientific in a final volume of 25 μL. Inhibitors were first diluted serially in DMSO and added to the plate wells before the addition of other reaction components. The final concentration of DMSO in the assay was 0.5%. The PI3K assays were carried out at room temperature in 20 mM MOPS, pH 6.7, 10 mM MgCl2, 5 mM DTT and CHAPS 0.03%. Reactions were initiated by the addition of ATP, the final reaction mixture consisted of 20 μM PIP2, 20 μM ATP, 0.2 μCi [γ-^33P] ATP, 4 nM PI3Kδ. Reactions were incubated for 210 minutes and terminated by the addition of 40 μL SPA beads suspended in quench buffer: 150 mM potassium phosphate pH 8.0, 20% glycerol. 25 mM EDTA, 400 μM ATP. The final concentration of SPA beads is 1.0 mg/mL. After the plate sealing, plates were shaken overnight at room temperature and centrifuged at 1800 rpm for 10 minutes, the radioactivity of the product was determined by scintillation counting on Topcount (Perkin-Elmer). IC50 determination was performed by fitting the curve of percent control activity versus the log of the inhibitor concentration using the GraphPad Prism® 3.0 software.

T1 sequence (O00329 whole entry): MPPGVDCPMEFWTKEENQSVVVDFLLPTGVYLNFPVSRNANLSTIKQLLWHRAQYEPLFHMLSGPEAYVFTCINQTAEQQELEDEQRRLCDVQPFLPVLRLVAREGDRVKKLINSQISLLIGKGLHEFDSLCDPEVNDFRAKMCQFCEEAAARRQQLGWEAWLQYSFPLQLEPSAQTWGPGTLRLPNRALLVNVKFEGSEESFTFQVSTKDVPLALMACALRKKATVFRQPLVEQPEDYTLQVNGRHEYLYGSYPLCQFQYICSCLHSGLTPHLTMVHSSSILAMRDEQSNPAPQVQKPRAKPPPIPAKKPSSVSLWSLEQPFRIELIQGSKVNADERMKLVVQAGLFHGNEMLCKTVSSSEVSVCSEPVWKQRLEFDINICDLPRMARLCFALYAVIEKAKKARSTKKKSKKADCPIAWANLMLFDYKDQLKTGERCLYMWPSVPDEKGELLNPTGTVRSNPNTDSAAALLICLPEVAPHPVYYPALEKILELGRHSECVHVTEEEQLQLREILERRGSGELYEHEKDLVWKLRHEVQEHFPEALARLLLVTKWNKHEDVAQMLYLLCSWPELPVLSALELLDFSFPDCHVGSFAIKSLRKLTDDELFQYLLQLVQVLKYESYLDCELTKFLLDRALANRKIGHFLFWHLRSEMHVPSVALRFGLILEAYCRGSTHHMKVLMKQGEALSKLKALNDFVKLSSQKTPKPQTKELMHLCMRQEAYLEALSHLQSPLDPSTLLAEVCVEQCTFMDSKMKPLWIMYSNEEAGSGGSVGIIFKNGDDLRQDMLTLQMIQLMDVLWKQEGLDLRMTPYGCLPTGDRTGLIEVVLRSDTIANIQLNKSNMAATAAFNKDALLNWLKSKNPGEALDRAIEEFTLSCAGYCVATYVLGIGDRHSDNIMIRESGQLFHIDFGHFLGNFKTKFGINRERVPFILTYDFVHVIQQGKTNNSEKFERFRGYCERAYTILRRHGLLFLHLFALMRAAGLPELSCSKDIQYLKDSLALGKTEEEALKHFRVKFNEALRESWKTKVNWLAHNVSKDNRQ
T1 sequence (P27986 whole entry partner): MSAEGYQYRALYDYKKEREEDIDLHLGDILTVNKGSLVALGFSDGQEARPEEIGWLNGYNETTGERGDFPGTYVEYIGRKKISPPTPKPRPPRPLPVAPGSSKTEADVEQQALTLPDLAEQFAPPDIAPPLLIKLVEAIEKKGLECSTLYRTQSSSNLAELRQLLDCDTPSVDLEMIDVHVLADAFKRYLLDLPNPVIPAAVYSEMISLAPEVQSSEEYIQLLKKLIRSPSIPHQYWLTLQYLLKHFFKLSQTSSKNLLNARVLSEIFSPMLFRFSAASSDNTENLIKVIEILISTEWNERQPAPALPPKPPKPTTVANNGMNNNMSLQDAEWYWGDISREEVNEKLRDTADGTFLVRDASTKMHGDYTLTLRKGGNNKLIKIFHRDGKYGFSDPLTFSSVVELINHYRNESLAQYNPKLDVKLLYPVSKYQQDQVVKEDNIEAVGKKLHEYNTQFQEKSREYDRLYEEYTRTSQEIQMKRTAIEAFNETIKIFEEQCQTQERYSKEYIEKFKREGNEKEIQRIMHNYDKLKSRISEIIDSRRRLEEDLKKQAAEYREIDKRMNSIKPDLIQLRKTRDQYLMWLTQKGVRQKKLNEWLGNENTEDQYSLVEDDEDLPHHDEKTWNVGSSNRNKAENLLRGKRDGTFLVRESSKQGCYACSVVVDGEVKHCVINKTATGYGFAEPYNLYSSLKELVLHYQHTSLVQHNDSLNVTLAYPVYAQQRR

Compound	IC50	also measured
CC(Nc1ncnc2[nH]cnc12)c1ccc2cccnc2c1-c1cccc(F)c1 (stereo not drawn) [Example 8, N-{1-[8-(3-fluorophenyl)quinolin-7-yl]ethyl}-9H-purin-6-amine bis-trifluoroacetate]	250 to 500 nM	–
CC(Nc1ncnc2[nH]cnc12)c1cc(Cl)c2ccnnc2c1-c1ccnc(F)c1 (stereo not drawn) [Example 42, N-{1-[5-Chloro-8-(2-fluoropyridin-4-yl)cinnolin-7-yl]ethyl}-9H-purin-6-amine]	500 to 1000 nM	–
CC(Nc1ncnc2[nH]cnc12)c1cc(Cl)c2cccnc2c1N1CCN(CCO)CC1 (stereo not drawn) [Example 58, 2-(4-{5-Chloro-7-[1-(9H-purin-6-ylamino)ethyl]quinolin-8-yf}piperazin-1-yl)ethanol tris(trifluoroacetate)]	< 50 nM	–
CC(=O)NC1CCN(c2c(C(C)Nc3ncnc4[nH]cnc34)cc(Cl)c3cccnc23)CC1 (stereo not drawn) [Example 82, N-(1-{5-Chloro-7-[1-(9H-purin-6-ylamino)ethyl]quinolin-8-yl}piperidin-4-yl)acetamide bis(trifluoroacetate)]	< 50 nM	–
CC(Nc1ncnc2[nH]cnc12)c1cc(Cl)c2cnn(C)c2c1-c1cc(F)cc(F)c1 (stereo not drawn) [Example 107]	< 50 nM	–
CC(Nc1ncnc2[nH]cnc12)c1cc(Cl)c2cccnc2c1N1CCC(N2CCCCC2)CC1 (stereo not drawn) [Example 70, N-{1-[8-(1,4′-Bipiperidin-1′-yl)-5-chloroquinolin-7-yl]ethyl}-9H-purin-6-amine tris(trifluoroacetate)]	50 to 100 nM	–
CC(Nc1ncnc2[nH]cnc12)c1ccc2cccnc2c1-c1cc(F)cc(F)c1 (stereo not drawn) [Example 6, N-{1-[8-(3,5-difluorophenyl)quinolin-7-yl]ethyl}-9H-purin-6-amine bis-trifluoroacetate]	500 to 1000 nM	–
CC(Nc1ncnc2[nH]cnc12)c1cc(Cl)c2cccnc2c1-c1ccccc1F (stereo not drawn) [Example 10, N-{1-[5-chloro-8-(2-fluorophenyl)quinolin-7-yl]ethyl}-9H-purin-6-amine bis-trifluoroacetate]	–	IC50 (separated isomer, 1st peak): 100 to 250 nM; IC50 (separated isomer, 2nd peak): < 50 nM
CC(Nc1ncnc2[nH]cnc12)c1cc(Cl)c2ccccc2c1N1CCC(O)CC1 (stereo not drawn) [Example 45, 1-{4-Chloro-2-[1-(9H-purin-6-ylamino)ethyl]-1-naphthyl}piperidin-4-ol]	< 50 nM	–
COC[C@H]1CCCN1c1c(C(C)Nc2ncnc3[nH]cnc23)cc(Cl)c2cccnc12 (mixture of isomers) [Example 14, N-(1-{5-chloro-8-[(2R)-2-(methoxymethyl)pyrrolidin-1-yl]quinolin-7-yl}ethyl)-9H-purin-6-amine bis-trifluoroacetate]	100 to 250 nM	–
CC(Nc1ncnc2[nH]cnc12)c1cc(Cl)c2cccnc2c1N1CCCC(F)C1 (stereo not drawn) [Example 61, N-{1-[5-Chloro-8-(3-fluoropiperidin-1-yl)quinolin-7-yl]ethyl}-9H-purin-6-amine bis(trifluoroacetate)]	250 to 500 nM	–
Cc1nc2c(-c3cccc(F)c3)c(C(C)Nc3ncnc4[nH]cnc34)ccc2s1 (stereo not drawn) [Example 2, N-{1-[4-(3-fluorophenyl)-2-methyl-1,3-benzothiazol-5-yl]ethyl}-9H-purin-6-amine trifluoroacetate]	> 1000 nM	–
CC(Nc1ncnc2[nH]cnc12)c1cc(Cl)c2cccnc2c1N1CCN(C(=O)C2CCC2)CC1 (stereo not drawn) [Example 86, N-(1-{5-Chloro-8-[4-(cyclobutylcarbonyl)piperazin-1-yl]quinolin-7-yl}ethyl)-9H-purin-6-amine bis(trifluoroacetate)]	< 50 nM	–
CC(Nc1ncnc2[nH]cnc12)c1cc(Cl)c2ccnnc2c1-c1cc(F)cc(F)c1 (single isomer, unassigned) [Example 23, N-{1-[5-Chloro-8-(3,5-difluorophenyl)cinnolin-7-yl]ethyl}-9H-purin-6-amine]	< 50 nM	–
CC(Nc1ncnc2[nH]cnc12)c1cc(F)c2cccnc2c1N1CCN(C2CCC2)CC1 (stereo not drawn) [Example 55, N-{1-[8-(4-Cyclobutylpiperazin-1yl)-5-fluoroquinolin-7-yl]ethyl}-9H-purin-6-amine]	< 50 nM	–
Cc1nc(C(C)Nc2ncnc3[nH]cnc23)c(-c2cccc(F)c2)c2ccccc12 (stereo not drawn) [Example 44, N-{1-[4-(3-Fluorophenyl)-1-methylisoquinolin-3-yl]ethyl}-9H-purin-6-amine]	100 to 250 nM	–

Compound	IC50	also measured
CC(=O)N[C@H]1CCN(c2c(C(C)Nc3ncnc4[nH]cnc34)cc(Cl)c3cccnc23)C1 (stereo partly drawn) [Example 13, N-((3S)-1-{5-chloro-7-[1-(9H-purin-6-ylamino)ethyl]quinolin-8-yl}pyrrolidin-3-yl}acetamide bis-trifluoroacetate]	< 50 nM	–
CC(Nc1ncnc2[nH]cnc12)c1cc(Cl)c2ccnnc2c1-c1cncc(F)c1 (single isomer, unassigned) [Example 34, N-{1-[5-chloro-8-(5-fluoropyridin-3-yl)cinnolin-7-yl]ethyl}-9H-purin-6-amine trifluoroacetate]	50 to 100 nM	–
CC(Nc1ncnc2[nH]cnc12)c1cc(Cl)c2cccnc2c1N1CCN(C(=O)c2ccccn2)CC1 (stereo not drawn) [Example 95, N-(1-{5-Chloro-8-[4-(pyridin-2-ylcarbonyl)piperazin-1-yl]quinolin-7-yl}ethyl)-9H-purin-6-amine tris(trifluoroacetate)]	< 50 nM	–
CC(=O)N1CCC(C(=O)N2CCN(c3c(C(C)Nc4ncnc5[nH]cnc45)cc(Cl)c4cccnc34)CC2)CC1 (stereo not drawn) [Example 94, N-[1-(8-{4-[(1-Acetylpiperidin-4-yl)carbonyl]piperazin-1-yl}-5-chloroquinolin-7-yl)ethyl]-9H-purin-6-amine bis(trifluoroacetate)]	< 50 nM	–
COC1CCN(c2c(C(C)Nc3ncnc4[nH]cnc34)cc(Cl)c3cccnc23)CC1 (stereo not drawn) [Example 71, N-{1-[5-Chloro-8-(4-methoxypiperidin-1-yl)quinolin-7-yl]ethyl}-9H-purin-6-amine bis(trifluoroacetate)]	50 to 100 nM	–
CC(Nc1ncnc2[nH]cnc12)c1cc(Cl)c2cccnc2c1N1CCN(C(=O)c2ccn(C)n2)CC1 (stereo not drawn) [Example 101, N-[1-(5-Chloro-8-{4-[(1-methyl-1H-pyrazol-3-yl)carbonyl]piperazin-1-yl}quinolin-7-yl)ethyl]-9H-purin-6-amine bis(trifluoroacetate)]	< 50 nM	–
Cc1noc(C)c1C(=O)N1CCN(c2c(C(C)Nc3ncnc4[nH]cnc34)cc(Cl)c3cccnc23)CC1 (stereo not drawn) [Example 100, N-[1-(5-Chloro-8-{4-[(3,5-dimethylisoxazol-4-yl)carbonyl]piperazin-1-yl}quinolin-7-yl)ethyl]-9H-purin-6-amine bis(trifluoroacetate)]	< 50 nM	–
CC(Nc1ncnc2[nH]cnc12)c1cc(Cl)c2ccnnc2c1-c1ccccc1F (single isomer, unassigned) [Example 27, N-{1-[5-Chloro-8-(2-fluorophenyl)cinnolin-7-yl]ethyl}-9H-purin-6-amine]	50 to 100 nM	–
CC(Nc1ncnc2[nH]cnc12)c1ccc2cccnc2c1-c1cncc(F)c1 (stereo not drawn) [Example 9, N-{1-[8-(5-fluoropyridin-3-yl)quinolin-7-yl]ethyl}-9H-purin-6-amine tris-trifluoroacetate]	500 to 1000 nM	–
Cc1cc(C(C)Nc2ncnc3[nH]cnc23)c(-c2cc(F)cc(F)c2)c2nnccc12 (single isomer, unassigned) [Example 38, N-{1-[8-(3,5-difluorophenyl)-5-methylcinnolin-7-yl]ethyl}-9H-purin-6-amine]	< 50 nM	–
CC(Nc1ncnc2[nH]cnc12)c1cc(Cl)c2cccnc2c1N1CCC(CO)CC1 (stereo not drawn) [Example 64, (1-{5-Chloro-7-[1-(9H-purin-6-ylamino)ethyl]quinolin-8-yl}piperidin-4-yl)methanol tris(trifluoroacetate)]	100 to 250 nM	–
CC(Nc1ncnc2[nH]cnc12)c1cc(Cl)c2cccnc2c1N1CCN(C(=O)c2ccccc2)CC1 (stereo not drawn) [Example 89, N-(1-[8-(4-Benzoylpiperazin-1-yl)-5-chloroquinolin-7-yl]ethyl}-9H-purin-6-amine bis(trifluoroacetate)]	50 to 100 nM	–
CC(Nc1ncnc2[nH]cnc12)c1cc(Cl)c2cccnc2c1-c1cccc(F)c1 (stereo not drawn) [Example 15, N-{1-[5-chloro-8-(3-fluorophenyl)quinolin-7-yl]ethyl}-9H-purin-6-amine bis-trifluoroacetate]	< 50 nM	–
CC(Nc1ncnc2[nH]cnc12)c1cc(Cl)c2cccnc2c1N1CCC(F)CC1 (stereo not drawn) [Example 62, N-{1-[5-Chloro-8-(4-fluoropiperidin-1-yl)quinolin-7-yl]ethyl}-9H-purin-6-amine bis(trifluoroacetate)]	100 to 250 nM	–
CCC(Nc1ncnc2[nH]cnc12)c1cc(Cl)c2ccnnc2c1-c1cccc(F)c1 (single isomer, unassigned) [Example 32, N-{1-[5-chloro-8-(3-fluorophenyl)cinnolin-7-yl]propyl}-9H-purin-6-amine]	> 1000 nM	–
CC(Nc1ncnc2[nH]cnc12)c1cc(Cl)c2cccnc2c1N1CCC(O)CC1 (stereo not drawn) [Example 43, 1-{5-Chloro-7-[1-(9H-purin-6-ylamino)ethyl]quinolin-8-yl}piperidin-4-ol]	< 50 nM	–
